Source: patent US9499550B2 (BRISTOL-MYERS SQUIBB COMPANY, priority 2012, dated 2016)
Where two headings read alike, the source gives them in different places.

Experiments:
[1] = test system: HCV genotype 1b (Con1) replicon in HUH-7 cells; experiment: HCV replicon luciferase reporter assay, genotype 1b; type: cell-based; details: Hepatitis C virus, Huh-7, 72 h, 3 days incubation, read-out: LE_1b (EC50, range)
How it was run: (§1)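 Replicon inhibition for both genotypes was measured as Renilla luciferase signal (EnduRen, 7.5 μM final, 2 h) after 3-day, 37° C exposure of replicon-bearing HUH-7 cells in 4% FCS DMEM, 0.5% DMSO. The 1b construct carries S1179I; the 1a H77 construct carries P1496L and S2204I. Twenty-point, 3-fold dilutions were fitted four-parametrically for EC50, and CC50 was taken from multiplexed Cell Titer-Blue.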

[2] = test system: HCV genotype 1a (H77 strain) replicon in HUH-7 cells; experiment: HCV replicon luciferase reporter assay, genotype 1a; type: cell-based; details: Hepatitis C virus, Huh-7, 72 h, 3 days incubation, read-out: LE_1a (EC50, range)
How it was run: as §1

[3] = HCV genotype 1b replicon luciferase
[4] = HCV genotype 1a replicon luciferase
[5] = HCV genotype 1b replicon luciferase assay, range class
[6] = HCV genotype 1a replicon luciferase assay, range class

SMILES	EC50 [1, 3]	EC50 [2, 4]	EC50 [1, 5]	EC50 [2, 6]	other results
CCOc1cnc(O[C@@H]2C[C@H]3C(=O)N[C@]4(C(=O)NS(=O)(=O)C5(CF)CC5)C[C@H]4/C=C\CC[C@@H](C)C[C@@H](C)[C@H](NC(=O)OC(C)(C)C)C(=O)N3C2)c2ccc(OC)cc12 [Compound 4105, tert-butyl (2R,6S,7R,9R,13aS,14aR,16aS,Z)-2-(4-ethoxy-6-methoxyisoquinolin-1-yloxy)-14a-(1-(fluoromethyl)cyclopropylsulfonylcarbamoyl)-7,9-dimethyl-5,16-dioxo-1,2,3,5,6,7,8,9,10,11,13a,14,14a,15,16,16a-hexadecahydrocyclopropa[e]pyrrolo[1,2-a][1,4]diazacyclopentadecin-6-ylcarbamate]	< 5.46 nM	< 5.46 nM	–	–	–
C[C@@H]1CC/C=C\[C@@H]2C[C@@]2(C(=O)NS(=O)(=O)C2CC2)NC(=O)[C@@H]2C[C@@H](Oc3ncc(OC4CC4)c4ccccc34)CN2C(=O)[C@@H](NC(=O)OC(C)(C)C(F)(F)F)[C@H](C)C1 [Compound 24, 1,1,1-trifluoro-2-methylpropan-2-yl((2R,6S,7R,9R,13aS,14aR,16aS,Z)-2-((4-cyclopropoxyisoquinolin-1-yl)oxy)-14a-((cyclopropylsulfonyl)carbamoyl)-7,9-dimethyl-5,16-dioxo-1,2,3,5,6,7,8,9,10,11,13a,14,14a,15,16,16a-hexadecahydrocyclopropa[e]pyrrolo[1,2-a][1,4]diazacyclopentadecin-6-yl)carbamate]	–	–	< 5.46 nM	< 5.46 nM	–
COc1ccc2c(O[C@@H]3C[C@H]4C(=O)N[C@]5(C(=O)NS(=O)(=O)C6CC6)C[C@H]5/C=C\CC[C@@H](C)C[C@@H](C)[C@H](NC(=O)OC(C)(C)C)C(=O)N4C3)nccc2c1 [Compound 1068, tert-butyl ((2R,6S,7R,9R,13aS,14aR,16aS,Z)-14a-((cyclopropylsulfonyl)carbamoyl)-2-((6-methoxyisoquinolin-1-yl)oxy)-7,9-dimethyl-5,16-dioxo-1,2,3,5,6,7,8,9,10,11,13a,14,14a,15,16,16a-hexadecahydrocyclopropa[e]pyrrolo[1,2-a][1,4]diazacyclopentadecin-6-yl)carbamate]	–	–	< 5.46 nM	< 5.46 nM	–
CC[C@@H]1C[C@H](C)CC/C=C\[C@@H]2C[C@@]2(C(=O)NS(=O)(=O)C2(CF)CC2)NC(=O)[C@@H]2C[C@@H](Oc3nc4c(c5ccccc35)CCCO4)CN2C(=O)[C@H]1NC(=O)OC(C)(C)C(F)F [Compound 6072, 1,1-difluoro-2-methylpropan-2-yl((2R,6S,7R,9R,13aS,14aR,16aS,Z)-2-((2,3-dihydro-1H-pyrano[2,3-c]isoquinolin-6-yl)oxy)-7-ethyl-14a-(((1-(fluoromethyl)cyclopropyl)sulfonyl)carbamoyl)-9-methyl-5,16-dioxo-1,2,3,5,6,7,8,9,10,11,13a,14,14a,15,16,16a-hexadecahydrocyclopropa[e]pyrrolo[1,2-a][1,4]diazacyclopentadecin-6-yl)carbamate]	0.51 to 1 nM	1.01 to 5 nM	–	–	–
COc1ccc2nc(O[C@@H]3C[C@H]4C(=O)N[C@]5(C(=O)NS(=O)(=O)C6(C)CC6)C[C@H]5/C=C\CC[C@@H](C)C[C@@H](C)[C@H](NC(=O)OC(C)(C)C(F)(F)F)C(=O)N4C3)c(-c3ccc(OC(C)C)cc3)nc2c1 [Compound 4261]	–	–	–	–	EC50 ([1]; GETYPE1B, HCV genotype 1b replicon luciferase): 1.01 to 5 nM; EC50 ([2]; GETYPE1A, HCV genotype 1a replicon luciferase): 5.01 to 35 nM
COc1ccc2c(O[C@@H]3C[C@H]4C(=O)N[C@]5(C(=O)NS(=O)(=O)C6CC6)C[C@H]5/C=C\CC[C@H](C)C[C@@H](C)[C@H](NC(=O)OC(C)(C)C)C(=O)N4C3)nc(-c3ccc(OC(C)C)c(F)c3)cc2c1 [Compound 3059, tert-butyl ((2R,6S,7R,9S,13aS,14aR,16aS,Z)-14a-((cyclopropylsulfonyl)carbamoyl)-2-((3-(3-fluoro-4-isopropoxyphenyl)-6-methoxyisoquinolin-1-yl)oxy)-7,9-dimethyl-5,16-dioxo-1,2,3,5,6,7,8,9,10,11,13a,14,14a,15,16,16a-hexadecahydrocyclopropa[e]pyrrolo[1,2-a][1,4]diazacyclopentadecin-6-yl)carbamate]	–	–	< 5.46 nM	4.82 to 103 nM	–
COc1ccc2c(O[C@@H]3C[C@H]4C(=O)N[C@]5(C(=O)NS(=O)(=O)C6CC6)C[C@H]5/C=C\CC[C@@H](C)C[C@@H](C)[C@H](NC(=O)O[C@H](C)C(F)(F)F)C(=O)N4C3)nc(-c3ccc(OC(C)C)c(F)c3)cc2c1 [Compound 3074, (R)-1,1,1-trifluoropropan-2-yl ((2R,6S,7R,9R,13aS,14aR,16aS,Z)-14a-((cyclopropylsulfonyl)carbamoyl)-2-((3-(3-fluoro-4-isopropoxyphenyl)-6-methoxyisoquinolin-1-yl)oxy)-7,9-dimethyl-5,16-dioxo-1,2,3,5,6,7,8,9,10,11,13a,14,14a,15,16,16a-hexadecahydrocyclopropa[e]pyrrolo[1,2-a][1,4]diazacyclopentadecin-6-yl)carbamate]	–	–	< 5.46 nM	< 5.46 nM	–
COc1ccc2c(O[C@@H]3C[C@H]4C(=O)N[C@]5(C(=O)NS(=O)(=O)C6(CF)CC6)C[C@H]5/C=C\CC[C@H](C)C[C@@H](C)[C@H](NC(=O)OC(C)(C)C(F)(F)F)C(=O)N4C3)nc(C(F)(F)F)cc2c1 [Compound 1168, 1,1,1-trifluoro-2-methylpropan-2-yl((2R,6S,7R,9S,13aS,14aR,16aS,Z)-14a-(((1-(fluoromethyl)cyclopropyl)sulfonyl)carbamoyl)-2-((6-methoxy-3-(trifluoromethyl)isoquinolin-1-yl)oxy)-7,9-dimethyl-5,16-dioxo-1,2,3,5,6,7,8,9,10,11,13a,14,14a,15,16,16a-hexadecahydrocyclopropa[e]pyrrolo[1,2-a][1,4]diazacyclopentadecin-6-yl)carbamate]	–	–	4.82 to 103 nM	4.82 to 103 nM	–
[2H]C([2H])([2H])C(OC(=O)N[C@@H]1C(=O)N2C[C@H](Oc3nccc4cc(OC(C)C)ccc34)C[C@H]2C(=O)N[C@]2(C(=O)NS(=O)(=O)C3CC3)C[C@H]2/C=C\CC[C@@H](C)C[C@H]1C)(C([2H])([2H])[2H])C([2H])([2H])[2H] [Compound 5155, 1,1,1,3,3,3-hexadeutero-2-(trideuteromethyl)propan-2-yl((2R,6S,7R,9R,13aS,14aR,16aS,Z)-14a-((cyclopropylsulfonyl)carbamoyl)-2-((6-isopropoxyisoquinolin-1-yl)oxy)-7,9-dimethyl-5,16-dioxo-1,2,3,5,6,7,8,9,10,11,13a,14,14a,15,16,16a-hexadecahydrocyclopropa[e]pyrrolo[1,2-a][1,4]diazacyclopentadecin-6-yl)carbamate]	< 5.46 nM	< 5.46 nM	–	–	–
CC[C@@H]1C[C@H](C)CC/C=C\[C@@H]2C[C@@]2(C(=O)NS(=O)(=O)C2CC2)NC(=O)[C@@H]2C[C@H](Oc3ncc(OC)c4ccc(F)cc34)CN2C(=O)[C@@H]1NC(=O)OC(C)(C)C [Compound 4001, tert-butyl tert-butyl (2R,6S,7R,9R,13aS,14aR,16aS,Z)-14a-(cyclopropylsulfonylcarbamoyl)-7-ethyl-2-(7-fluoro-4-methoxyisoquinolin-1-yloxy)-9-methyl-5,16-dioxo-1,2,3,5,6,7,8,9,10,11,13a,14,14a,15,16,16a-hexadecahydrocyclopropa[e]pyrrolo[1,2-a][1,4]diazacyclopentadecin-6-ylcarbamate]	< 5.46 nM	< 5.46 nM	–	–	–
